Data from US9012470B2 (Dart NeuroScience (Cayman) Ltd., priority 2010, dated 2015).
Structures can show the parent of a compound that is named as a salt.

Assays:
[1] = tested on: benzodiazepine site of GABAA; assay: Binding assay, benzodiazepine site of GABAA (binding assay 1: rat brain, (3H)-flunitrazepam; binding assay 2: bovine hippocampal membranes, [3H]-RY80); conditions: radioligand binding; for % Inhibition at 10 μM: 10 μM test compound; for % Inhibition at 0.1 μM: 0.1 μM test compound
Procedure: The ability of a compound disclosed herein to act as ligand to the benzodiazepine site of GABAA can be determined using pharmacological models which are well known in the art using the following assay.
Binding assay 1: Whole brain (except cerebellum) of male Wistar derived rats weighing 175±25 g were used to prepare GABAA central benzodiazepine receptor in Na—K phosphate buffer pH 7.4. A 5 mg aliquot was incubated with 1 nM (^3H)-flunitrazepam for 60 minutes at 25° C. Experiments were performed in the presence or absence of 30 μM of GABA. Non-specific binding was estimated in the presence of 10 μM of diazepam. Membranes were filtered and washed, the filters were then counted to determine (^3H)-flunitrazepam specifically bound. Test compounds were tested in duplicate according to the required concentrations (Damm, H. W., et al. (1978) Res. Comm. Chem. Pathol. Pharmacol. 22: 597-560 incorporated herein in its entirety; Speth, R. C., et al. (1979) Life Sci. 24: 351-357 incorporated herein in its entirety).
Receptor Source: Bovine hippocampal membranes
Radioligand: [3H]-RY80 (40-80 Ci/mmol)
Final ligand concentration—[0.8 nM]
Non-specific Determinant: L-655,708—[0.5 μM]
Binding assay 2 followed procedures based on Li and Szabo (Li M., Szabo A., Rosenberg H. Evaluation of native GABAA receptors containing an α5 subunit. Eur. J. Pharmacol. 413: 63-72 (2001)). Incubation Conditions: Reactions are carried out in 50 mM Tris-Citrate (pH 7.8) containing 200 mM NaCl at 0-4° C. for 60 minutes. The reaction is terminated by rapid vacuum filtration onto glass fiber filters. Radioactivity trapped onto the filters is determined and compared to control values in order to ascertain any interactions of test compound with the benzodiazepine (central) binding site.

GABAA receptors = assay: Electrophysiology assay, two-electrode voltage clamp in Xenopus oocytes expressing GABAA receptors; format: cell-based; conditions: GABA EC10, screening concentration of 10 μM, subunit combination not stated
Procedure: mRNA was prepared from lyophilized plasmid pellets containing cDNA inserts encoding the specific GABAA receptor subunit. cDNAs encoding the α2, α3, and γ3 subunits were subcloned into pBluescript, SK^−. cDNAs encoding the α1 and α5 subunits were subcloned into prC while cDNA encoding the β2 subunit was subcloned into pcDNA1. The cDNA construct encoding the γ2s subunit is in the pGH19 expression construct. Overnight cultures of transformed DH5a bacterial cells were performed to grow sufficient quantities for maxiprep isolation of the plasmid cDNA. The resulting plasmid cDNA was linearized by digestion with an appropriate restriction enzyme that cleaves distal to the cDNA insert (XbaI for α1,2, β2, and γ3 or NotI for α3,5 and γ2, respectively). Following digestion, plasmid cDNA was treated with proteinase K and extracted with phenol/chloroform/isoamyl alcohol, followed by ethanol precipitation. cDNA quality was assessed by agarose-gel electrophoresis (1.5% agarose gel). Samples were stored at −20° C. until use. In vitro transcription was performed with T7 RNA polymerase. mRNA was then stored at −80° C. until use. Plasmids were linearized with appropriate restriction enzymes before in vitro transcription using the Message Machine kit (Ambion, Austin, Tex.).
GABAA Receptor Expression in Xenopus oocytes.
GABAA receptor expression in Xenopus oocytes: Following 45 min of 0.15% Tricaine anesthesia, an ovarian section containing the follicular oocytes was removed from the frog through a lateral abdominal incision. Oocytes were immediately placed in a calcium-free solution (NaCl 96 mM, MgCl2 1 mM, KCl 2 mM, Hepes 50 mM, pyruvate 2.5 mM, gentamycin 100 μg/mL, penicillin-streptomycin 50 U/mL, pH 7.4). Following 1.5-2 hour incubation in 0.2% collagenase (type II, Sigma Chemical Co., St. Louis, Mo.) at room temperature, individual Dumont stage V and VI oocytes were transferred to an incubator and maintained overnight in Barth's solution (NaCl 84 mM, NaHCO3 2.4 mM, MgSO4 0.82 mM, KCl 1 mM, Ca(NO3)2 0.33 mM, CaCl2 0.41 mM, Tris/HCl 7.5 mM, pyruvate 2.5 mM, gentamycin 50 μg/mL, penicillin-streptomycin, 100 units/mL, pH 7.4) at 18-20° C. and used for experiments 1-5 days post-injection. Oocytes were injected solution using an electronic microinjector (Drummond, Broomall, Pa.) with 50 nL of RNA containing 0.3-0.5 ng of each subunit RNA in a 1:1:1 ratio. The injected oocytes were used for experiments after 1-5 days of incubation in Barth's solution at 18-20° C.
Measurements of ion currents from oocytes expressing GABAA receptors were performed using a Warner two-electrode voltage-clamp amplifier (Warner Instruments, Inc., Foster City, Calif.) (Park-Chung, M., et al. (1999) Brain Res. 830: 72-87 incorporated herein in its entirety). Microelectrodes were fabricated from borosilicate glass capillaries with a programmed pipette puller (Sutter Instrument Co., Calif.). Microelectrode resistance was 1-3 MΩ when filled with 3 M KCl. The oocyte recording chamber was continuously perfused with Ringer solution. Oocytes were clamped at a holding potential of −70 mV during data acquisition. The membrane current was filtered at 10 Hz and sampled at 100 Hz. Compounds were applied by a gravity-driven external perfusion system. The working volume of the recording chamber was 30 μL and the rate of the perfusion was approximately 50 μL/sec. Compound application was 10-20 sec followed by a 90 sec wash. Data acquisition and external perfusion was computer controlled by custom-developed software. All experiments were performed at room temperature (22-24° C.). Dose-response data from each oocyte were fitted to the Hill equation by non-linear regression using the equation: IGABA=Emax/(1+(EC50/c)^n^H)
Emax is the maximum response, EC50 is the concentration producing 50% of the maximal response, nH is the Hill coefficient and c is the concentration of agonist. […]

| % Inhibition at 10 μM [1] | % Inhibition at 0.1 μM [1] | SMILES | EP Modulation (GABAA receptors) |
| --- | --- | --- | --- |
| A (A indicates % inhibition >80%) | – | CCNC(=O)n1ncc2c3nn(-c4cccc(Cl)c4)c(=O)c-3c[nH]c21 [Compound 6ad, 2-(3-chlorophenyl)-N-ethyl-3-oxo-2,3-dihydrodipyrazolo[3,4-b:3′,4′-d]pyridine-6(5H)-carboxamide] | E (E indicates negative modulation <20%) |
| A (A indicates % inhibition >80%) | – | CCNC(=O)n1ncc2c3nn(-c4ccc(C(F)(F)F)cc4)c(=O)c-3c[nH]c21 [Compound 6ae, N-ethyl-3-oxo-2-(4-(trifluoromethyl)phenyl)-2,3-dihydrodipyrazolo[3,4-b:3′,4′-d]pyridine-6(5H)-carboxamide] | E (E indicates negative modulation <20%) |
| A (A indicates % inhibition >80%) | C (C indicates % inhibition <20%) | CCNC(=O)n1ncc2c3nn(-c4cccc(C(F)(F)F)c4)c(=O)c-3c[nH]c21 [Compound 6ai, N-ethyl-3-oxo-2-(3-(trifluoromethyl)phenyl)-2,3-dihydrodipyrazolo[3,4-b:3′,4′-d]pyridine-6(5H)-carboxamide] | 0% |
| A (A indicates % inhibition >80%) | – | CCNC(=S)n1ncc2c3nn(-c4ccccc4)c(=O)c-3c[nH]c21 [Compound 6ar, N-ethyl-3-oxo-2-phenyl-2,3-dihydrodipyrazolo[3,4-b:3′,4′-d]pyridine-6(5H)-carbothioamide] | E (E indicates negative modulation <20%) |
| C (C indicates % inhibition <20%) | – | CC(C)NC(=O)n1ncc2c3nn(-c4ccc(Cl)c(C(F)(F)F)c4)c(=O)c-3c[nH]c21 [Compound 6t, 2-(4-chloro-3-(trifluoromethyl)phenyl)-N-isopropyl-3-oxo-2,3-dihydrodipyrazolo[3,4-b:3′,4′-d]pyridine-6(5H)-carboxamide] | – |
| A (A indicates % inhibition >80%) | – | CC(C)NC(=O)n1ncc2c3nn(-c4ccc(Br)cc4)c(=O)c-3c[nH]c21 [Compound 6x, 2-(4-bromophenyl)-N-isopropyl-3-oxo-2,3-dihydrodipyrazolo[3,4-b:3′,4′-d]pyridine-6(5H)-carboxamide] | – |
| A (A indicates % inhibition >80%) | A (A indicates % inhibition >80%) | CCNC(=O)n1cc2[nH]cc3c(=O)n(-c4ccc(Cl)cn4)nc-3c2c1 [Compound 13h, 2-(5-chloropyridin-2-yl)-N-ethyl-3-oxo-2,3-dihydropyrazolo[3,4-d]pyrrolo[3,4-b]pyridine-7(5H)-carboxamide] | – |
| C (C indicates % inhibition <20%) | C (C indicates % inhibition <20%) | CNC(=O)n1ccc2c3nn(-c4ccccc4)c(=O)c-3c[nH]c21 [Compound 17a, N-Methyl-3-oxo-2-phenyl-2,3-dihydropyrazolo[3,4-d]pyrrolo[2,3-b]pyridine-6(5H)-carboxamide] | – |
| C (C indicates % inhibition <20%) | C (C indicates % inhibition <20%) | CC(C)NC(=O)n1ccc2c3nn(-c4ccccc4)c(=O)c-3c[nH]c21 [Compound 17c, N-Isopropyl-3-oxo-2-phenyl-2,3-dihydropyrazolo[3,4-d]pyrrolo[2,3-b]pyridine-6(5H)-carboxamide] | – |
| C (C indicates % inhibition <20%) | C (C indicates % inhibition <20%) | O=C(Nc1ccccc1)n1ccc2c3nn(-c4ccccc4)c(=O)c-3c[nH]c21 [Compound 17d, 3-Oxo-N,2-diphenyl-2,3-dihydropyrazolo[3,4-d]pyrrolo[2,3-b]pyridine-6(5H)-carboxamide] | – |

| SMILES | % Inhibition at 10 μM [1] | % Inhibition at 0.1 μM [1] | EP Modulation (GABAA receptors) |
| --- | --- | --- | --- |
| CCNC(=O)n1ncc2c3nn(-c4ccc(Cl)c(C(F)(F)F)c4)c(=O)c-3c[nH]c21 [Compound 6s, 2-(4-chloro-3-(trifluoromethyl)phenyl)-N-ethyl-3-oxo-2,3-dihydrodipyrazolo[3,4-b:3′,4′-d]pyridine-6(5H)-carboxamide] | B (B indicates % inhibition <80% and >20%) | – | – |
| CC(C)NC(=O)n1ncc2c3nn(-c4ccsc4)c(=O)c-3c[nH]c21 [Compound 6v, N-isopropyl-3-oxo-2-(thiophen-3-yl)-2,3-dihydrodipyrazolo[3,4-b:3′,4′-d]pyridine-6(5H)-carboxamide] | B (B indicates % inhibition <80% and >20%) | – | – |
| CN(C)C(=O)n1ncc2c3nn(-c4ccccc4)c(=O)c-3c[nH]c21 [Compound 7c, N,N-dimethyl-3-oxo-2-phenyl-2,3-dihydrodipyrazolo[3,4-b:3′,4′-d]pyridine-6(5H)-carboxamide. TFA] | B (B indicates % inhibition <80% and >20%) | – | – |
| CC(C)NC(=O)n1cc2[nH]cc3c(=O)n(-c4ccccc4)nc-3c2c1 [Compound 13j, N-Isopropyl-3-oxo-2-phenyl-2,3-dihydropyrazolo[3,4-d]pyrrolo[3,4-b]pyridine-7(5H)-carboxamide] | A (A indicates % inhibition >80%) | B (B indicates % inhibition <80% and >20%) | – |
| O=C(Nc1ccccc1)n1cc2[nH]cc3c(=O)n(-c4ccccc4)nc-3c2c1 [Compound 13k, 3-Oxo-N,2-diphenyl-2,3-dihydropyrazolo[3,4-d]pyrrolo[3,4-b]pyridine-7(5H)-carboxamide] | A (A indicates % inhibition >80%) | B (B indicates % inhibition <80% and >20%) | – |
| CCNC(=O)n1ccc2c3nn(-c4ccccc4)c(=O)c-3c[nH]c21 [Compound 17b, N-Ethyl-3-oxo-2-phenyl-2,3-dihydropyrazolo[3,4-d]pyrrolo[2,3-b]pyridine-6(5H)-carboxamide] | B (B indicates % inhibition <80% and >20%) | C (C indicates % inhibition <20%) | – |
| CCNC(=S)n1ccc2c3nn(-c4ccccc4)c(=O)c-3c[nH]c21 [Compound 17e, N-ethyl-3-oxo-2-phenyl-2,3-dihydropyrazolo[3,4-d]pyrrolo[2,3-b]pyridine-6(5H)-carbothioamide] | B (B indicates % inhibition <80% and >20%) | – | – |
| CCNC(=O)n1ccc2c3nn(-c4ccc(Cl)cn4)c(=O)c-3c[nH]c21 [Compound 17f, 2-(5-Chloropyridin-2-yl)-N-ethyl-3-oxo-2,3-dihydropyrazolo[3,4-d]pyrrolo[2,3-b]pyridine-6(5H)-carboxamide] | B (B indicates % inhibition <80% and >20%) | – | – |
